From PubChem BioAssay AID206 (DTP/NCI, 2004) come the findings set out here.

Where “and” joins values, the source holds several entries; their conditions need not be identical. Identical values can stand only once. Inconclusive results are not listed.

For this assay, the system named is nude mice, HT29 intrarenal xenograft, tumor weight T/C. In words: NCI In Vivo Anticancer Drug Screen. Data for tumor model HT29;CX-1 Human Adenocarcinoma (MER+) (intrarenal inoculation) in NU/NU Swiss (nude) mice. The conditions noted are these: endpoint: mean tumor weight change, higher = larger tumour. Put shortly: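 Tumor-bearing mice received test compound or vehicle, and tumor size or survival was recorded. Values are the treated-group measurement divided by the vehicle-treated control measurement.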

Setting [1] is: dose: 600.0 mg/kg/injection, schedule: Q04DX004 (sc), vehicle: saline with Tween-80.
The mark [2] stands for this setting: dose: 25.0 mg/kg/injection, schedule: Q01DX010 (sc), vehicle: saline.
Where [3] appears, read: dose: 150.0 mg/kg/injection, schedule: Q04DX004 (sc), vehicle: saline with Tween-80.
Setting [4] is: dose: 300.0 mg/kg/injection, schedule: Q04DX004 (sc), vehicle: saline with Tween-80.

On to `Cc1cc(O)c(N=Nc2ccc(C(=O)O)cc2)cc1C`, for which the T/C by setting is: under setting [1], 107 % of control; (dose: 2400.0 mg/kg/injection, schedule: Q04DX004 (sc), vehicle: saline with Tween-80) 154 % of control.
`CC(=O)OCC1OC(OC(C)=O)C(NC(=O)N(CCCl)N=O)C(OC(C)=O)C1OC(C)=O` (centres undefined): the T/C reads like this: (dose: 3.0 mg/kg/injection, schedule: Q04DX004 (sc), vehicle: Klucel (hydroxypropylcellulose) (HPC)) 30 % of control; (dose: 6.0 mg/kg/injection, schedule: Q04DX004 (sc), vehicle: Klucel (hydroxypropylcellulose) (HPC)) 40 % of control; (dose: 12.0 mg/kg/injection, schedule: Q04DX004 (sc), vehicle: Klucel (hydroxypropylcellulose) (HPC)) 60 % of control; (dose: 24.0 mg/kg/injection, schedule: Q04DX004 (sc), vehicle: Klucel (hydroxypropylcellulose) (HPC)) 96 % of control.
In the case of `CC(C)(C)N1CC1CNC(=O)C(=O)NCC1CN1C(C)(C)C` (centres undefined), the T/C (dose: 25.0 mg/kg/injection, schedule: Q04DX004 (sc), vehicle: saline with Tween-80) was 109 % of control.
Turning to `O=C(O)CC(=O)O.[NH-]CC[NH-].[Pt+2]`, the T/C runs as follows: (dose: 25.0 mg/kg/injection, schedule: Q01DX010 (sc), vehicle: dextrose) 29 % of control; (dose: 50.0 mg/kg/injection, schedule: Q01DX010 (sc), vehicle: dextrose) 41 % of control.
For `CC(=O)NC(Cc1ccc(F)cc1)C(=O)O` (centres undefined), the T/C by setting is: (dose: 225.0 mg/kg/injection, schedule: Q04DX004 (sc), vehicle: saline with Tween-80) 108 % of control; (dose: 450.0 mg/kg/injection, schedule: Q04DX004 (sc), vehicle: saline with Tween-80) 114 % of control; (dose: 900.0 mg/kg/injection, schedule: Q04DX004 (sc), vehicle: saline with Tween-80) 83 % of control; (dose: 1800.0 mg/kg/injection, schedule: Q04DX004 (sc), vehicle: saline with Tween-80) 106 % of control.
With `CN(C(=S)S(=O)(=O)C12CC3CC(CC(C3)C1)C2)c1ccccc1`, the T/C was 99 % of control (dose: 12.5 mg/kg/injection, schedule: Q04DX004 (sc), vehicle: Klucel (hydroxypropylcellulose) (HPC)); 113 % of control (dose: 25.0 mg/kg/injection, schedule: Q04DX004 (sc), vehicle: Klucel (hydroxypropylcellulose) (HPC)); 107 % of control and 123 % of control (dose: 400.0 mg/kg/injection, schedule: Q04DX004 (sc), vehicle: Klucel (hydroxypropylcellulose) (HPC)); 197 % of control (dose: 800.0 mg/kg/injection, schedule: Q04DX004 (sc), vehicle: Klucel (hydroxypropylcellulose) (HPC)).
As to `C=CC(=O)N1CN(C(=O)C=C)CN(C(=O)C=C)C1`, the T/C is 183 % of control (dose: 6.25 mg/kg/injection, schedule: Q01DX010 (sc), vehicle: saline with Tween-80) and 45 % of control (dose: 12.5 mg/kg/injection, schedule: Q01DX010 (sc), vehicle: saline with Tween-80).
As for `COc1cc2c(cc1O)N=C[C@@H]1CCC(O)N1C2=O` (mixture of isomers), where the note is “dose: 10.0 mg/kg/injection, schedule: Q04DX004 (sc), vehicle: suspension in saline”, the T/C was 64 % of control.
Take `CCCCCCCCSC1=C(Cl)C(=O)C(OC)=C(OC)C1=O`: the T/C reads like this: (dose: 18.0 mg/kg/injection, schedule: Q04DX004 (sc), vehicle: saline with Tween-80) 96 % of control; (dose: 36.0 mg/kg/injection, schedule: Q04DX004 (sc), vehicle: saline with Tween-80) 82 % of control; (dose: 72.0 mg/kg/injection, schedule: Q04DX004 (sc), vehicle: saline with Tween-80) 118 % of control; (dose: 144.0 mg/kg/injection, schedule: Q04DX004 (sc), vehicle: saline with Tween-80) 59 % of control.
As to `OCC1(CO)COC2(CCCCC2)N1`, the T/C (dose: 600.0 mg/kg/injection, schedule: Q04DX004 (sc), vehicle: suspension in saline) was 115 % of control; the T/C (dose: 1200.0 mg/kg/injection, schedule: Q04DX004 (sc), vehicle: suspension in saline) was 56 % of control; the T/C (dose: 2400.0 mg/kg/injection, schedule: Q04DX004 (sc), vehicle: suspension in saline) is 109 % of control.
With `O=C1C(NCCO)=C(N2CC2)C(=O)C(NCCO)=C1N1CC1`, the T/C (dose: 0.5 mg/kg/injection, schedule: Q04DX004 (sc), vehicle: saline) is 76 % of control; the T/C (dose: 1.0 mg/kg/injection, schedule: Q04DX004 (sc), vehicle: saline) was 12 % of control; the T/C (dose: 1.5 mg/kg/injection, schedule: Q04DX004 (sc), vehicle: saline) is 86 % of control; the T/C (dose: 2.0 mg/kg/injection, schedule: Q04DX004 (sc), vehicle: saline) was 21 % of control; the T/C (dose: 3.0 mg/kg/injection, schedule: Q04DX004 (sc), vehicle: saline) is 82 % of control.
In the case of `N=[N+]=CC(=O)OCC(N)C(=O)O` (centres undefined), the T/C is 212 % of control (dose: 3.13 mg/kg/injection, schedule: Q01DX010 (sc), vehicle: saline); 87 % of control (dose: 6.25 mg/kg/injection, schedule: Q01DX010 (sc), vehicle: saline); 85 % of control (dose: 12.5 mg/kg/injection, schedule: Q01DX010 (sc), vehicle: saline); 123 % of control under setting [2].
On to `CCCCCCCCCCCCCCCCS(=O)CC(O)COC(=O)c1ccc(C(=O)OCC(O)CS(=O)CCCCCCCCCCCCCCCC)cc1` (centres undefined), for which the T/C reads like this: (dose: 50.0 mg/kg/injection, schedule: Q01DX010 (sc), vehicle: saline + Tween-80 + alcohol) 114 % of control; (dose: 400.0 mg/kg/injection, schedule: Q01DX010 (sc), vehicle: saline + Tween-80 + alcohol) 93 % of control and 110 % of control.
Take `NC(=S)N/N=C/c1ccc(OC(=O)COc2ccccc2)cn1`: the T/C is 102 % of control under setting [3]; 94 % of control under setting [4]; 155 % of control under setting [1]; 38 % of control (dose: 1200.0 mg/kg/injection, schedule: Q04DX004 (sc), vehicle: saline with Tween-80).
Consider `C=C(C(=O)O)C(N)C(=O)O` (centres undefined), for which the T/C reads like this: (dose: 225.0 mg/kg/injection, schedule: Q04DX004 (sc), vehicle: suspension in saline) 114 % of control; (dose: 450.0 mg/kg/injection, schedule: Q04DX004 (sc), vehicle: suspension in saline) 64 % of control; (dose: 900.0 mg/kg/injection, schedule: Q04DX004 (sc), vehicle: suspension in saline) 109 % of control.
`CC(=O)CC(=O)CCC(=O)O`: the T/C was 111 % of control (dose: 150.0 mg/kg/injection, schedule: Q04DX004 (sc), vehicle: saline); 113 % of control (dose: 600.0 mg/kg/injection, schedule: Q04DX004 (sc), vehicle: saline); 104 % of control (dose: 1200.0 mg/kg/injection, schedule: Q04DX004 (sc), vehicle: saline).
As to `O=CC(S)CO` (centres undefined), the T/C by setting is: (dose: 100.0 mg/kg/injection, schedule: Q04DX004 (sc), vehicle: suspension in saline) 92 % of control; (dose: 200.0 mg/kg/injection, schedule: Q04DX004 (sc), vehicle: suspension in saline) 69 % of control; (dose: 400.0 mg/kg/injection, schedule: Q04DX004 (sc), vehicle: suspension in saline) 101 % of control; (dose: 800.0 mg/kg/injection, schedule: Q04DX004 (sc), vehicle: suspension in saline) 72 % of control.
As to `Cc1cc(C)c(-c2cc(O)c(C)cc2O)c(C)c1`, the T/C (dose: 1200.0 mg/kg/injection, schedule: Q04DX004 (sc), vehicle: Klucel (hydroxypropylcellulose) (HPC)) was 68 % of control and the T/C (dose: 2400.0 mg/kg/injection, schedule: Q04DX004 (sc), vehicle: Klucel (hydroxypropylcellulose) (HPC)) is 71 % of control.
In the case of `COC1CC(C)C(OC)c2cc(O)cc(c2O)NC(=O)/C(C)=C/C=C\C(C)C(OC(N)=O)/C(C)=C\C(C)C1OC` (centres undefined), the T/C (dose: 50.0 mg/kg/injection, schedule: Q04DX004 (sc), vehicle: saline + alcohol) was 113 % of control.
With `Brc1ccc(C[N+]23CN4CN(CN(C4)C2)C3)cc1`, the T/C under setting [3] is 69 % of control and the T/C under setting [4] is 101 % of control.
As for `Cc1cc(NCCCN(C)C)c2ccc3c(ccc4c(NCCCN(C)C)cc(C)nc43)c2n1`, under “dose: 9.38 mg/kg/injection, schedule: Q04DX004 (sc), vehicle: saline with Tween-80”, the T/C was 53 % of control.
Regarding `CC(C)(C)c1ccc(CN2CCN(C(c3ccccc3)c3ccc(Cl)cc3)CC2)cc1` (centres undefined), the T/C is 78 % of control (dose: 75.0 mg/kg/injection, schedule: Q04DX004 (sc), vehicle: Klucel (hydroxypropylcellulose) (HPC)); 74 % of control (dose: 150.0 mg/kg/injection, schedule: Q04DX004 (sc), vehicle: Klucel (hydroxypropylcellulose) (HPC)); 88 % of control (dose: 300.0 mg/kg/injection, schedule: Q04DX004 (sc), vehicle: Klucel (hydroxypropylcellulose) (HPC)); 93 % of control (dose: 600.0 mg/kg/injection, schedule: Q04DX004 (sc), vehicle: Klucel (hydroxypropylcellulose) (HPC)).
On to `C=CC(=O)NCNC(=O)C=C`, for which the T/C was 217 % of control and 220 % of control under setting [2]; 213 % of control (dose: 100.0 mg/kg/injection, schedule: Q01DX010 (sc), vehicle: saline).
